Measurements from a melting point compilation (Tetko et al.; mined from patent text by program, amines drawn as free bases though some values may be those of a salt).

Q: With `CN1CCN(C2=Cc3ccccc3Sc3cc(Cl)c(Cl)cc32)CC1` as the molecule, how does the melting point read?
A: Its melting point is 157 to 159 °C.

Q: Which melting point does the source give for `CN(Cc1cccs1)C(=O)C1CC2C=CC1C2` (stereo not drawn) here?
A: The melting point was 74 to 75 °C.

Q: Which melting point does the source give for `CCCCCCCCCCC1(CCCCCCCCCC)c2cc(Br)ccc2-c2ccc(I)cc21` here?
A: The melting point was 43 to 45 °C.

Q: For `COc1ccc(OC)c2c1C[C@@H](O)[C@H](NC(C)C)C2` (relative stereo), which melting point is on record?
A: The melting point was 144 to 145 °C.

Q: Which melting point does the source give for `C#CCOC(=O)c1cc(C)oc1C` here?
A: The melting point was 35 to 37 °C.

Q: With `Cn1cncc1C(c1ccc(Cl)cc1)c1ccc2c(c1)c(-c1nc(-c3ccccc3)cs1)cc(=O)n2C` (stereo not drawn) as the molecule, how does the melting point read?
A: The melting point was 171 °C.

Q: Which melting point does the source give for `Cc1nccc2c3ccc(OCc4cccc(F)c4)cc3n(Cc3cccc(F)c3)c12` here?
A: Its melting point is 148 °C.

Q: For `CCCCc1ccc(-c2csc(-c3ccc(C(=O)O)cc3)n2)cc1`, which melting point is on record?
A: Its melting point is 263 to 265 °C.

Q: For `COC(=O)C1=C(C)NC(c2cnc(Cl)s2)=NC1c1ccc(F)cc1Cl` (stereo not drawn), which melting point is on record?
A: Its melting point is greater than 230 °C.

Q: For `Nc1nc(=O)c2ncn(C3OC4COP(=O)(O)OC4C3O)c2[nH]1` (stereo not drawn), which melting point is on record?
A: Its melting point is 91.6 to 93.7 °C.

Q: Which melting point does the source give for `COc1cc(C)c2ccc(=O)[nH]c2n1` here?
A: The melting point was 214 to 216 °C.

Q: Which melting point does the source give for `COC(=O)c1nc2cc(OC)c(OC)cc2n(C)c1=O` here?
A: Its melting point is 222 °C.

Q: Which melting point does the source give for `CN1C(=O)CCC2(CCC(=O)c3ccccc32)C1=O` (stereo not drawn) here?
A: Its melting point is 136 to 138 °C.

Q: Which melting point does the source give for `COc1ccc(-c2c(C)c(NC(=O)CC(C)(C)C)c(C)c3c2OCC3c2ccc(C(C)C)cc2)cc1` (stereo not drawn) here?
A: Its melting point is 129 to 131 °C.

Q: For `COc1cccc(CC(=O)O)c1OCCCc1cn(-c2cc(C(F)(F)F)ccn2)nc1C(C)C`, which melting point is on record?
A: The melting point was 127 to 128 °C.

Q: With `CC(=NOCCOc1ccc(CC2SC(=O)NC2=O)cc1)c1ccc(-c2ccc(F)cc2)cc1` (stereo not drawn) as the molecule, how does the melting point read?
A: Its melting point is 155 to 156 °C.

Q: For `CCOC(=O)CC(=O)c1ccc(Br)c(OC)c1F`, which melting point is on record?
A: The melting point was 52 to 53 °C.

Q: For `N#CNC=Nc1ccc(-c2ccccn2)cc1`, which melting point is on record?
A: The melting point was 150 to 151 °C.

Q: Which melting point does the source give for `Clc1ccc(-c2cc(Cl)n3nccc3n2)cc1` here?
A: Its melting point is 133 to 135 °C.

Q: Which melting point does the source give for `NC(=O)COc1ccccc1[N+](=O)[O-]` here?
A: The melting point was 190 to 191 °C.

Q: For `CC=C1CC1C(=C1C(=O)OC(=O)C1c1cc(C)n(-c2ccccc2)c1C)C1CC1` (stereo not drawn), which melting point is on record?
A: The melting point was 145 °C.

Q: With `O=C(c1ccccc1)c1cc(Cl)ccc1OCCCl` as the molecule, how does the melting point read?
A: The melting point was 73 to 74.5 °C.

Q: With `FC(F)(F)c1ccc(-n2nnnc2Nc2ccc(C(F)(F)F)cc2Cl)cc1` as the molecule, how does the melting point read?
A: The melting point was 116 °C.

Q: With `Cc1cccc2ncc(C(=O)NC3CC3)c(=O)n12` as the molecule, how does the melting point read?
A: Its melting point is 174 to 176 °C.

Q: With `O[C@@H](COc1cccc(-c2noc3ccsc23)c1)CN1CCN(c2ccccc2)CC1` as the molecule, how does the melting point read?
A: Its melting point is 127 to 129 °C.

Q: For `FC(F)(F)c1ccc(-c2cc(C(F)(F)F)n3cnc(-c4ccncc4)c3n2)cc1C(F)(F)F`, which melting point is on record?
A: The melting point was 211 °C.

Q: With `CCOC(=O)c1ccc(N(N)C(=O)OC(C)(C)C)cc1` as the molecule, how does the melting point read?
A: The melting point was 74 °C.

Q: Which melting point does the source give for `CCC(=O)c1cc(C2(c3cccc(-c4cccnc4F)c3)N=C(N)N(C)C2=O)cs1` (stereo not drawn) here?
A: The melting point was 98 to 112 °C.

Q: With `NCC(O)CSc1ccccc1` (stereo not drawn) as the molecule, how does the melting point read?
A: Its melting point is 57 to 61 °C.

Q: With `C[C@@H](S)[C@](O)(Cn1ccnc1)c1ccc(F)cc1F` as the molecule, how does the melting point read?
A: Its melting point is 125 to 135 °C.

Q: With `Cc1cccc(C=NN2C(=O)CN(C(c3ccccc3)c3ccccc3)CC2=O)n1` as the molecule, how does the melting point read?
A: The melting point was 161 to 163 °C.

Q: For `CCNC(=O)c1ccc(N2CCNCC2)cc1`, which melting point is on record?
A: The melting point was 131 to 134 °C.

Q: For `NCc1ccc(OCc2ccccc2)c(O)c1`, which melting point is on record?
A: Its melting point is 122 to 125 °C.

Q: For `CCOC(=O)c1sc(Br)c(Br)c1Cl`, which melting point is on record?
A: The melting point was 58 to 63 °C.

Q: Which melting point does the source give for `CC(C)(C)OC(=O)Nc1ccc(-c2ccc(OCc3ccccc3)nc2)cc1NC(=O)CC(=O)c1cccc(-n2ccnc2)c1` here?
A: The melting point was 79 to 83 °C.

Q: With `O=C1CCCc2cc(=O)[nH]cc21` as the molecule, how does the melting point read?
A: Its melting point is 246 to 248 °C.

Q: For `O=C(CCC(=O)Oc1ccc(C(=O)OCc2ccccc2)cc1)Oc1ccc(C(=O)OCc2ccccc2)cc1`, which melting point is on record?
A: Its melting point is 106 to 107 °C.

Q: For `CN(CSC(C)(C)C)C(=O)Nc1cccc(C(F)(F)F)c1`, which melting point is on record?
A: The melting point was 96 to 99 °C.

Q: With `CCC(=O)C(Cc1c(F)cccc1F)C(=O)CC` as the molecule, how does the melting point read?
A: The melting point was 55 to 56 °C.

Q: Which melting point does the source give for `COC(=O)CN(C)c1nc(-c2ccc(Cl)c(Cl)c2)cs1` here?
A: The melting point was 88 to 89 °C.

Q: With `Cc1oc(C)c(C(=O)Nc2ccc(Cl)c(C(=O)OC(C)C)c2)c1C` as the molecule, how does the melting point read?
A: The melting point was 83 to 85 °C.

Q: With `CCOC(=O)c1sc(Cl)nc1-c1ccc([N+](=O)[O-])cc1` as the molecule, how does the melting point read?
A: The melting point was 146 to 148 °C.

Q: Which melting point does the source give for `CCCCCCCCCCCCCCCCCCCCCCOc1ccc(C(=O)OCC)cc1` here?
A: Its melting point is 56.5 to 59.5 °C.

Q: With `CC(C)Cc1cc(OCc2ccccc2)c2c(c1)OC(C)(C)CC2=O` as the molecule, how does the melting point read?
A: The melting point was 77.5 to 78 °C.

Q: Which melting point does the source give for `Cn1c(=O)c2c(N)ccnc2n(C)c1=O` here?
A: Its melting point is 233 to 235 °C.

Q: For `COc1ccc(-c2cccc(Nc3nccc(-c4sc(N)nc4-c4ccccc4)n3)c2)cc1OC`, which melting point is on record?
A: Its melting point is 236 to 237 °C.

Q: With `CNC(=O)n1sc(SC)nc1=O` as the molecule, how does the melting point read?
A: The melting point was 144 °C.

Q: For `Cc1c(C(=O)OC(C)C)ncc2[nH]c3cccc(Oc4ccc(Cl)cn4)c3c12`, which melting point is on record?
A: The melting point was 243 to 245 °C.

Q: Which melting point does the source give for `CC[C@H](C)[C@H](NC(=O)[C@@H]1CCCN1C(=O)OCc1ccccc1)C(=O)NCC(C)C` here?
A: Its melting point is 87 to 88 °C.

Q: For `Cc1cc(C)c(-c2nc(-c3ccc(O)cc3O)nc(-c3ccc(O)cc3O)n2)c(C)c1`, which melting point is on record?
A: The melting point was 230 to 234 °C.

Q: Which melting point does the source give for `N#Cc1nc(NC2CCCCC2)c2ncn(CCn3ccnc3)c2n1` here?
A: The melting point was 115 to 117 °C.

Q: With `Cc1ccc(N=C2NCCN2)c(Cl)c1Cl` as the molecule, how does the melting point read?
A: The melting point was 158 to 162 °C.

Q: For `NC1=Nc2ccc(Cl)cc2C2CCCC12F` (stereo not drawn), which melting point is on record?
A: Its melting point is 223 °C.
